Measurements: publication PMC3873466 (PLoS ONE, 2013)

Legend:
[1] = biological target: F. tularensis ParE (full length) (Francisella tularensis, UniProt A0A0J9WZF0); experiment: biochemical
[2] = biological target: E. coli GyrB (full length) (Escherichia coli, UniProt P0AES6); experiment: biochemical

Chain of F. tularensis ParE (full length) (A0A0J9WZF0 whole entry, looked up): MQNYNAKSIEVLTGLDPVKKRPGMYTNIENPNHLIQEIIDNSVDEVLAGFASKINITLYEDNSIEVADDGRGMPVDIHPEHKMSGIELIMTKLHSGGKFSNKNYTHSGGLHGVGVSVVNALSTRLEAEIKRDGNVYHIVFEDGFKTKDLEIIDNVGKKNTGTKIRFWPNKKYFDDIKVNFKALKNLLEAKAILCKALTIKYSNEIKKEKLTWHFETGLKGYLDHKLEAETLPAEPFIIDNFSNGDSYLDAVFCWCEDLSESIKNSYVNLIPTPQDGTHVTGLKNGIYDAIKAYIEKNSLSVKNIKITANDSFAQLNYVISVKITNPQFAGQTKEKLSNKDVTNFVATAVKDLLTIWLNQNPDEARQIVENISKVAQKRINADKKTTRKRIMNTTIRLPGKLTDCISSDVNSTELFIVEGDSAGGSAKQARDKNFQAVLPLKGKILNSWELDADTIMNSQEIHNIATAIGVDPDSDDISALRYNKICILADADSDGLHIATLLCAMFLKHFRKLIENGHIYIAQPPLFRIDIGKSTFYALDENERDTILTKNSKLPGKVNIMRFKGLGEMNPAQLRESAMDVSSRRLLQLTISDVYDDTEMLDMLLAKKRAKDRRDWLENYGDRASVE

Compound | Ki [1] | Ki [2]
CNc1cc(F)cc2c1[nH]c1nc(Oc3cnc(C)nc3)nc(N3C[C@H]4CCN[C@H]4C3)c12 [C3, 6-fluoro-4-((3aR,6aR)-hexahydropyrrolo[3,4-b]pyrrol-5(1H)-yl)-N-methyl-2-((2-methylpyrimidin-5-yl)oxy)-9H-pyrimido[4,5-b]indol-8-amine] | < 0.4 nM | –
CNc1cc(F)cc2c1[nH]c1nc(Oc3cnc(C)nc3)nc(N3C[C@@H]4[C@H](N)C[C@]4(C)C3)c12 [C4, 4-((1S,5R,6R)-6-amino-1-methyl-3-azabicyclo[3.2.0]heptan-3-yl)-6-fluoro-N-methyl-2-((2-methylpyrimidin-5-yl)oxy)-9H-pyrimido[4,5-b]indol-8-amine] | 0.8 nM | 0.3 nM
